Where two headings read alike, the source gives them in different places.
Key:
[1] = system: HCV replicon (BB7 sequence) in Huh-7-Clone A cells; assay: HCV replicon assay: ELISA of NS5A protein in replicon-containing cells (Inhibition of Viral RNA Replication); type: cell-based; details: Hepatitis C virus, read-out: Replicon
Summary of the method: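 Huh-7-Clone A cells carrying subgenomic BB7 HCV replicon (G418-selectable) incubated 72 h with compound. NS5A protein quantified by cell ELISA: glutaraldehyde fixation, anti-NS5A monoclonal plus HRP secondary, TMB read at OD 650 nm. EC50 derived from 8-point serial dilution dose curve.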

[2] = target: T1, HCV NS5B (Hepatitis C virus genotype 1b, UniProt Q9WMX2); assay: Inhibition of viral RNA-dependent RNA polymerase (RdRp), in vitro biochemical assay; design: species or system HCV genotype 1b virus (BB7); details: HCV NS5B RdRp, BB7, read-out: HCV pol-BB7 IC50
T1 construct: fusion protein, of which the carboxyl terminal 21 amino acids were removed to enhance its solubility; His tag (GSHHHHHH); made in house; host or cells: E. coli
Summary of the method: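 Purified recombinant NS5B from a genotype 1b consensus (BB7), His-tagged, E. coli-expressed, with the C-terminal 21 residues deleted. Inhibition of RdRp activity in vitro was measured, and IC50 is the concentration giving 50% inhibition.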

[3] = HCV replicon assay, ranges of EC50

SMILES	EC50 ([1]; HCV replicon, range of EC50)	IC50 ([2]; reported as range class)	EC50 [1, 3]	IC50 ([2]; class symbols A-D)
CNC(=O)c1c(-c2ccc(F)cc2)oc2cc(-c3cc(C)n(C)n3)c(OC(C)C)cc12 [Example 248, 6-(1,5-Dimethyl-1H-pyrazol-3-yl)-2-(4-fluoro-phenyl)-5-isopropoxy-benzofuran-3-carboxylic acid methylamide]	< 10 µM	0.5 to 5 µM		
CNC(=O)c1c(-c2ccc(F)cc2)oc2cc(CN(C)S(C)(=O)=O)c(OC(C)C)cc12 [Example 249, 2-(4-Fluoro-phenyl)-5-isopropoxy-6-[(methanesulfonyl-methyl-amino)-methyl]-benzofuran-3-carboxylic acid methylamide]	< 10 µM	≤ 0.5 µM		
CNC(=O)c1c(-c2ccc(F)cc2)oc2cc(N3CCOCC3)c(OCC(C)(C)O)cc12 [Example 250, 2-(4-Fluoro-phenyl)-5-(2-hydroxy-2-methyl-propoxy)-6-morpholin-4-ylbenzofuran-3-carboxylic acid methylamide]			< 10 µM	0.5 to 5 µM
CCC(C)(O)COc1cc2c(C(=O)NC)c(-c3ccc(F)cc3)oc2cc1N1CCOCC1 (stereo not shown) [Example 251, 2-(4-Fluoro-phenyl)-5-(2-hydroxy-2-methyl-butoxy)-6-morpholin-4-yl-benzofuran-3-carboxylic acid methylamide]			< 10 µM	0.5 to 5 µM
CNC(=O)c1c(-c2ccc(F)cc2)oc2cc(N3CCOCC3)c(OCC(C)O)cc12 (stereo not shown) [Example 252, 2-(4-Fluoro-phenyl)-5-(2-hydroxy-propoxy)-6-morpholin-4-yl-benzofuran-3-carboxylic acid methylamide]			< 10 µM	0.5 to 5 µM
CNC(=O)c1c(-c2ccc(F)cc2)oc2cc(N(CC(C)O)S(C)(=O)=O)c(OC(C)C)cc12 (stereo not shown) [Example 253, 2-(4-Fluoro-phenyl)-6-[(2-hydroxy-propyl)-methanesulfonyl-amino]-5-isopropoxy-benzofuran-3-carboxylic acid methylamide]			< 1 µM	≤ 0.5 µM
CNC(=O)c1c(-c2ccc(F)cc2)oc2cc(N3CCOCC3)c(OC(C)c3nccs3)cc12 (stereo not shown) [Example 254, 2-(4-Fluoro-phenyl)-6-morpholin-4-yl-5-(1-thiazol-2-yl-ethoxy)-benzofuran-3-carboxylic acid methylamide]			< 1 µM	≤ 0.5 µM
CCN(c1cc2oc(-c3ccc(F)cc3)c(C(=O)NC)c2cc1OC(C)C)S(C)(=O)=O [Example 255, 6-(Ethyl-methanesulfonyl-amino)-2-(4-fluoro-phenyl)-5-isopropoxy-benzofuran-3-carboxylic acid methylamide]			< 1 µM	≤ 0.5 µM
CNC(=O)c1c(-c2ccc(F)cc2)oc2cc(-c3c(C)n[nH]c3C)c(OC)cc12 [Example 256, 6-(3,5-Diinethyl-1H-pyrazol-4-yl)-2-(4-fluoro-phenyl)-5-methoxy-benzofuran-3-carboxylic acid methylamide]			< 1 µM	≤ 0.5 µM
CNC(=O)c1c(-c2ccc(F)cc2)oc2cc(-c3cn[nH]c3C)c(OC(C)C)cc12 [Example 257, 2-(4-Fluoro-phenyl)-5-isopropoxy-6-(5-methyl-1H-pyrazol-4-yl)-benzofuran-3-carboxylic acid methylamide]			< 1 µM	≤ 0.5 µM
CNC(=O)c1c(-c2ccc(F)cc2)oc2ccc(OCc3cccc(C(=O)OC)c3)cc12 [Example 258, 3-[2-(4-Fluoro-phenyl)-3-methylcarbamoyl-benzofuran-5-yloxymethyl]-benzoic acid methyl ester]			> 30 µM	≤ 0.5 µM
CNC(=O)c1c(-c2ccc(F)cc2)oc2ccc(OCc3ccc(C(=O)O)cc3)cc12 [Example 259, 4-[2-(4-Fluoro-phenyl)-3-methylcarbamoyl-benzofuran-5-yloxymethyl]-benzoic acid]			< 30 µM	0.5 to 5 µM
CNC(=O)c1c(-c2ccc(F)cc2)oc2ccc(OCc3cccc(C(=O)O)c3)cc12 [Example 260, 3-[2-(4-Fluoro-phenyl)-3-methylcarbamoyl-benzofuran-5-yloxymethyl]-benzoic acid]			> 30 µM	≤ 0.5 µM
CNC(=O)c1c(-c2ccc(F)cc2)oc2cc(C(C)=O)c(OC)cc12 [Example 261, 6-Acetyl-2-(4-fluoro-phenyl)-5-methoxy-benzofuran-3-carboxylic acid methylamide]			< 1 µM	≤ 0.5 µM
CNC(=O)c1c(-c2ccc(F)cc2)oc2cc(N3CCOCC3)c(OCc3ccc(C(=O)OC)cc3)cc12 [Example 262, 4-[2-(4-Fluoro-phenyl)-3-methylcarbamoyl-6-morpholin-4-yl-benzofuran-5-yloxymethyl]-benzoic acid methyl ester]			< 10 µM	≤ 0.5 µM
CNC(=O)c1c(-c2ccc(F)cc2)oc2cc(N3CCOCC3)c(OCc3cccc(C(=O)OC)c3)cc12 [Example 263, 3-[2-(4-Fluoro-phenyl)-3-methylcarbamoyl-6-morpholin-4-yl-benzofuran-5-yloxymethyl]-benzoic acid methyl ester]			< 10 µM	≤ 0.5 µM
CNC(=O)c1c(-c2ccc(F)cc2)oc2cc(-c3c(C)nn(C)c3C)c(OC(C)C)cc12 [Example 264, 2-(4-Fluoro-phenyl)-5-isopropoxy-6-(1,3,5-trimethyl-1H-pyrazol-4-yl)-benzofuran-3-carboxylic acid methylamide]			< 10 µM	0.5 to 5 µM
CNC(=O)c1c(-c2ccc(F)cc2)oc2cc(C3CCCN3)c(OC(C)C)cc12 (stereo not shown) [Example 265, 2-(4-Fluoro-phenyl)-5-isopropoxy-6-pyrrolidin-2-yl-benzofuran-3-carboxylic acid methylamide]			> 30 µM	5 to 30 µM
CNC(=O)c1c(-c2ccc(F)cc2)oc2cc(C#N)c(OC)cc12 [Example 266, 6-Cyano-2-(4-fluoro-phenyl)-5-methoxy-benzofuran-3-carboxylic acid methylamide]			< 1 µM	≤ 0.5 µM
CNC(=O)c1c(-c2ccc(F)cc2)oc2cc(N3CCOCC3)c(OCc3ccc(C(=O)O)cc3)cc12 [Example 267, 4-[2-(4-Fluoro-phenyl)-3-methylcarbamoyl-6-morpholin-4-yl-benzofuran-5-yloxymethyl]-benzoic acid]			< 10 µM	≤ 0.5 µM
CNC(=O)c1c(-c2ccc(F)cc2)oc2cc(N3CCOCC3)c(OCc3cccc(C(=O)O)c3)cc12 [Example 268, 3-[2-(4-Fluoro-phenyl)-3-methylcarbamoyl-6-morpholin-4-yl-benzofuran-5-yloxymethyl]-benzoic acid]			< 10 µM	≤ 0.5 µM
CNC(=O)c1c(-c2ccc(F)cc2)oc2cc(N(Cc3nnnn3C)S(C)(=O)=O)c(OC(C)C)cc12 [Example 269, 2-(4-Fluoro-phenyl)-5-isopropoxy-6-[methanesulfonyl-(1-methyl-1H-tetrazol-5-ylmethyl)-amino]-benzofuran-3-carboxylic acid methylamide]			< 1 µM	≤ 0.5 µM
CNC(=O)c1c(-c2ccc(F)cc2)oc2cc(N(Cc3ccc(C(=O)OC)cc3)S(C)(=O)=O)c(OC(C)C)cc12 [Example 270, 4-({[2-(4-Fluoro-phenyl)-5-isopropoxy-3-methylcarbamoyl-benzofuran-6-yl]-methanesulfonyl-amino}-methyl)-benzoic acid methyl ester]			< 1 µM	≤ 0.5 µM
CNC(=O)c1c(-c2ccc(F)cc2)oc2cc(N(Cc3csc(C)n3)S(C)(=O)=O)c(OC(C)C)cc12 [Example 271, 2-(4-Fluoro-phenyl)-5-isopropoxy-6-[methanesulfonyl-(2-methyl-thiazol-4-ylmethyl)-amino]-benzofuran-3-carboxylic acid methylamide]			< 10 µM	≤ 0.5 µM
CNC(=O)c1c(-c2ccc(F)cc2)oc2cc(N(Cc3ccc(C(=O)O)cc3)S(C)(=O)=O)c(OC(C)C)cc12 [Example 272, 4-({[2-(4-Fluoro-phenyl)-5-isopropoxy-3-methylcarbamoyl-benzofuran-6-yl]-methanesulfonyl-amino}-methyl)-benzoic acid]			≤ 1 µM	≤ 0.5 µM
CNC(=O)c1c(-c2ccc(F)cc2)oc2cc(-c3cc(COC)on3)c(OC(C)C)cc12 [Example 273, 2-(4-Fluoro-phenyl)-5-isopropoxy-6-(5-methoxymethyl-isoxazol-3-yl)-benzofuran-3-carboxylic acid methylamide]			< 1 µM	≤ 0.5 µM
CNC(=O)c1c(-c2ccc(F)cc2)oc2cc(-c3cc(C4CC4)on3)c(OC(C)C)cc12 [Example 274, 6-(5-Cyclopropyl-isoxazol-3-yl)-2-(4-fluoro-phenyl)-5-isopropoxy-benzofuran-3-carboxylic acid methylamide]			< 1 µM	≤ 0.5 µM
CNC(=O)c1c(-c2ccc(F)cc2)oc2cc(C3CCCN3S(C)(=O)=O)c(OC(C)C)cc12 (stereo not shown) [Example 275, 2-(4-Fluoro-phenyl)-5-isopropoxy-6-(1-methanesulfonyl-pyrrolidin-2-yl)-benzofuran-3-carboxylic acid methylamide]			< 1 µM	≤ 0.5 µM
CNC(=O)c1c(-c2ccc(F)cc2)oc2cc(C(C)=O)c(O)cc12 [Example 276, 6-Acetyl-2-(4-fluoro-phenyl)-5-hydroxy-benzofuran-3-carboxylic acid methylamide]			< 10 µM	0.5 to 5 µM
